Experimental findings from patent US7022688B1, “Use of 17β-dihydroequilenin as an antioxidant” (Wyeth, priority 1996, dated 2006) are described below.

Experiment [1] deals with oxidatively modified low density lipoprotein (LDL). In words: porcine aortic endothelial cell mediated LDL oxidation assay (TBARS method). The experiment is classed as cell-based. To be noted: pocine aortic endothelial cell mediated oxidation of LDL. The source says: (§1) The antioxidant properties of 17β-dihydroequilenin were established in a standard pharmacological test procedure that measured the its ability to inhibit the formation of oxidatively modified low density lipoprotein (LDL) induced by exposure to either Cu++ ions or cultured endothelial cells (Parthasarathy S, Proc Natl Acad Sci USA 86:1046–1050 (1989)) by the TBARS (thiobarbituric acid reactive substances) method for analysis of free aldehydes (Yagi K., Biochem Med 15:212–216 (1976)).

The test system is the same in experiment [2]. In words: inhibition of LDL oxidation induced by Cu++ ions or cultured endothelial cells (TBARS method). The settings on record: maximal inhibition of the process.
From the text: as §1

Consider `C[C@]12CCc3c(ccc4cc(O)ccc34)[C@@H]1CC[C@@H]2O` [17β-dihydroequilenin], for which it took 315 nM to reach half-maximal inhibition in experiment [1] (IC50). Further, the “inhibition of LDL oxidation” value in experiment [2] is recorded as “up to 100%”.
In the case of `C[C@]12CC[C@@H]3c4ccc(O)cc4CC[C@H]3[C@@H]1CCC2=O` [estrone, reference compound], inhibition in experiment [1] was half-maximal at 560 nM (IC50).
